According to ChEMBL document CHEMBL1201861, “Genomics of Drug Sensitity in Cancer screening data, Wellcome Trust Sanger Institute”:

Legend:
Assay in all cases: cells
Type in all cases: functional, cell-based, Homo sapiens
Ca9-22 = tested on: Ca9-22;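 note: growth inhibition of Ca9-22 cells, read out with a cell viability assay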
Description: SANGER: Inhibition of human Ca9-22 cell growth in a cell viability assay.

ChaGo-K-1 = tested on: ChaGo-K-1;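 note: growth inhibition of ChaGo-K-1 cells, read out with a cell viability assay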
Description: SANGER: Inhibition of human ChaGo-K-1 cell growth in a cell viability assay.

DMS-273 = tested on: DMS-273
Description: SANGER: Inhibition of human DMS-273 cell growth in a cell viability assay.

Detroit 562 = tested on: Detroit 562;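 note: growth inhibition of human Detroit 562 cells, read out by a cell viability assay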
Description: SANGER: Inhibition of human Detroit562 cell growth in a cell viability assay.

HCC1806 = tested on: HCC1806;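 note: growth inhibition of the cancer cell line, determined with a cell viability assay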
Description: SANGER: Inhibition of human HCC1806 cell growth in a cell viability assay.

HGC-27 = tested on: HGC-27;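 note: growth inhibition of human HGC-27 cells, read out in a cell viability assay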
Description: SANGER: Inhibition of human HGC-27 cell growth in a cell viability assay.

HSC-2 = tested on: HSC-2;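 note: growth inhibition of human HSC-2 cells, read out by a cell viability assay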
Description: SANGER: Inhibition of human HSC-2 cell growth in a cell viability assay.

Hs-578T = tested on: Hs-578T
Description: SANGER: Inhibition of human Hs-578-T cell growth in a cell viability assay.

HuP-T3 = tested on: HuP-T3;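 note: HuP-T3 cell growth inhibition, read out with a cell viability assay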
Description: SANGER: Inhibition of human HuP-T3 cell growth in a cell viability assay.

JEG-3 = tested on: JEG-3;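 note: growth inhibition of human JEG-3 cells, read out with a cell viability assay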
Description: SANGER: Inhibition of human JEG-3 cell growth in a cell viability assay.

Kasumi 1 = tested on: Kasumi 1;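 note: growth inhibition of human Kasumi-1 cells, read out by a cell viability assay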
Description: SANGER: Inhibition of human KASUMI-1 cell growth in a cell viability assay.

KNS-62 = tested on: KNS-62;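 note: inhibition of cell growth, read out with a cell viability assay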
Description: SANGER: Inhibition of human KNS-62 cell growth in a cell viability assay.

KYSE-450 = tested on: KYSE-450;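 note: cell growth inhibition measured by a viability assay in human KYSE-450 cells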
Description: SANGER: Inhibition of human KYSE-450 cell growth in a cell viability assay.

KYSE-70 cell line = tested on: KYSE-70 cell line;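 note: cell viability assay read-out, with IC50 expressing suppression of KYSE-70 cell growth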
Description: SANGER: Inhibition of human KYSE-70 cell growth in a cell viability assay.

LK-2 = tested on: LK-2;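 note: growth inhibition of LK-2 cells, read out with a viability assay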
Description: SANGER: Inhibition of human LK-2 cell growth in a cell viability assay.

MCF7 = tested on: MCF7;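 note: growth inhibition of human MCF7 cells, read out with a cell viability assay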
Description: SANGER: Inhibition of human MCF7 cell growth in a cell viability assay.

NCI-H1437 = tested on: NCI-H1437;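 note: growth inhibition of human NCI-H1437 cells, read out by a cell viability assay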
Description: SANGER: Inhibition of human NCI-H1437 cell growth in a cell viability assay.

NCI-H1651 = tested on: NCI-H1651;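 note: Read-out is a cell viability assay, with IC50 expressing inhibition of NCI-H1651 cell growth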
Description: SANGER: Inhibition of human NCI-H1651 cell growth in a cell viability assay.

NCI-H1703 = tested on: NCI-H1703;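 note: growth inhibition of NCI-H1703 cells, read out via a cell viability assay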
Description: SANGER: Inhibition of human NCI-H1703 cell growth in a cell viability assay.

NCI-H2347 = tested on: NCI-H2347;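 note: growth inhibition of the cell line, read out with a cell viability assay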
Description: SANGER: Inhibition of human NCI-H2347 cell growth in a cell viability assay.

NCI-H596 = tested on: NCI-H596;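 note: growth inhibition of NCI-H596 cells, read out with a cell viability assay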
Description: SANGER: Inhibition of human NCI-H596 cell growth in a cell viability assay.

NCI-H630 = tested on: NCI-H630;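 note: growth inhibition of NCI-H630 cells, read out with a cell viability assay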
Description: SANGER: Inhibition of human NCI-H630 cell growth in a cell viability assay.

NCI-H661 = tested on: NCI-H661;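 note: cell viability assay read-out, IC50 being the concentration that inhibits growth of the cells by half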
Description: SANGER: Inhibition of human NCI-H661 cell growth in a cell viability assay.

NCI-H727 = tested on: NCI-H727;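 note: growth inhibition of human NCI-H727 cells, read out with a cell viability assay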
Description: SANGER: Inhibition of human NCI-H727 cell growth in a cell viability assay.

PANC-03-27 = tested on: PANC-03-27
Description: SANGER: Inhibition of human PANC-03-27 cell growth in a cell viability assay.

PFSK-1 = tested on: PFSK-1;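 note: cell viability assay measuring how strongly compounds suppress growth of human PFSK-1 cells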
Description: SANGER: Inhibition of human PFSK-1 cell growth in a cell viability assay.

RO82-W-1 = tested on: RO82-W-1;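 note: growth inhibition of human RO82-W-1 cells, measured with a cell viability assay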
Description: SANGER: Inhibition of human RO82-W-1 cell growth in a cell viability assay.

SCC-25 = tested on: SCC-25;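 note: growth inhibition of SCC-25 cells, measured with a cell viability assay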
Description: SANGER: Inhibition of human SCC-25 cell growth in a cell viability assay.

SW626 = tested on: SW626;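 note: growth inhibition of SW626 cells, measured with a cell viability assay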
Description: SANGER: Inhibition of human SW626 cell growth in a cell viability assay.

SW756 = tested on: SW756;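 note: growth inhibition of human SW756 cells, read out with a cell viability assay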
Description: SANGER: Inhibition of human SW756 cell growth in a cell viability assay.

T-24 = tested on: T-24;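 note: growth inhibition of T-24 cells, read out with a cell viability assay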
Description: SANGER: Inhibition of human T-24 cell growth in a cell viability assay.

5637 = tested on: 5637
Description: SANGER: Inhibition of human 5637 cell growth in a cell viability assay.

8505C = tested on: 8505C
Description: SANGER: Inhibition of human 8505C cell growth in a cell viability assay.

AN3-CA = tested on: AN3-CA;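 note: growth inhibition of human AN3-CA cells measured by a cell viability assay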
Description: SANGER: Inhibition of human AN3-CA cell growth in a cell viability assay.

CAKI-1 = tested on: CAKI-1;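 note: growth inhibition of CAKI-1 cells, measured by a cell viability assay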
Description: SANGER: Inhibition of human CAKI-1 cell growth in a cell viability assay.

UACC-893 = tested on: UACC-893
Description: SANGER: Inhibition of human UACC-893 cell growth in a cell viability assay.

UMUC3 = tested on: UMUC3;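 note: growth inhibition of human UM-UC-3 cells, read out with a cell viability assay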
Description: SANGER: Inhibition of human UM-UC-3 cell growth in a cell viability assay.

ZR-75-30 = tested on: ZR-75-30;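 note: growth inhibition of ZR-75-30 cells, measured with a cell viability readout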
Description: SANGER: Inhibition of human ZR-75-30 cell growth in a cell viability assay.

COLO-679 = tested on: COLO-679
Description: SANGER: Inhibition of human COLO-679 cell growth in a cell viability assay.

CO[C@H]1C[C@@H]2CC[C@@H](C)[C@@](O)(O2)C(=O)C(=O)N2CCCC[C@H]2C(=O)O[C@H]([C@H](C)C[C@@H]2CC[C@@H](OC(=O)C(C)(CO)CO)[C@H](OC)C2)CC(=O)[C@H](C)/C=C(\C)[C@@H](O)[C@@H](OC)C(=O)[C@H](C)C[C@H](C)/C=C/C=C/C=C/1C [TEMSIROLIMUS] showed an IC50 (Ca9-22; Homo sapiens, Ca9-22) of 0.0966 µM, an IC50 (ChaGo-K-1; Homo sapiens, ChaGo-K-1) greater than 0.2 µM and an IC50 (DMS-273; Homo sapiens, DMS-273) greater than 0.2 µM. It also gave an IC50 (Detroit 562; Homo sapiens, Detroit 562) greater than 0.2 µM, an IC50 (HCC1806; Homo sapiens, HCC1806) greater than 0.2 µM and an IC50 (HGC-27; Homo sapiens, HGC-27) of 0.0096 µM. For the same compound, the IC50 (HSC-2; Homo sapiens, HSC-2) was 0.2 µM, the IC50 (Hs-578T; Homo sapiens, Hs-578T) was 0.0659 µM and the IC50 (HuP-T3; Homo sapiens, HuP-T3) was greater than 0.2 µM. For the same compound, the IC50 (JEG-3; Homo sapiens, JEG-3) was greater than 0.2 µM, the IC50 (Kasumi 1; Homo sapiens, Kasumi 1) was 0.0562 µM and the IC50 (KNS-62; Homo sapiens, KNS-62) was 0.0504 µM. For the same compound, the IC50 (KYSE-450; Homo sapiens, KYSE-450) was greater than 0.2 µM, the IC50 (KYSE-70 cell line; Homo sapiens, KYSE-70) was greater than 0.2 µM and the IC50 (LK-2; Homo sapiens, LK-2) was greater than 0.2 µM. It also gave an IC50 (MCF7; Homo sapiens, MCF7) greater than 0.2 µM, an IC50 (NCI-H1437; Homo sapiens, NCI-H1437) of 0.103 µM and an IC50 (NCI-H1651; Homo sapiens, NCI-H1651) greater than 0.2 µM. It also gave an IC50 (NCI-H1703; Homo sapiens, NCI-H1703) of 0.0232 µM, an IC50 (NCI-H2347; Homo sapiens, NCI-H2347) greater than 0.2 µM and an IC50 (NCI-H596; Homo sapiens, NCI-H596) greater than 0.2 µM. For the same compound, the IC50 (NCI-H630; Homo sapiens, NCI-H630) was greater than 0.2 µM, the IC50 (NCI-H661; Homo sapiens, NCI-H661) was 0.117 µM and the IC50 (NCI-H727; Homo sapiens, NCI-H727) was greater than 0.2 µM. The IC50 (PANC-03-27; Homo sapiens, PANC-03-27) was greater than 0.2 µM, the IC50 (PFSK-1; Homo sapiens, PFSK-1) was 0.0277 µM and the IC50 (RO82-W-1; Homo sapiens, RO82-W-1) was greater than 0.2 µM. For the same compound, the IC50 (SCC-25; Homo sapiens, SCC-25) was greater than 0.2 µM, the IC50 (SW626; Homo sapiens, SW626) was greater than 0.2 µM and the IC50 (SW756; Homo sapiens, SW756) was greater than 0.2 µM. The IC50 (T-24; Homo sapiens, T-24) was 0.0139 µM, the IC50 (5637; Homo sapiens) was greater than 0.2 µM and the IC50 (8505C; Homo sapiens, 8505C) was greater than 0.2 µM. It also gave an IC50 (AN3-CA; Homo sapiens, AN3-CA) of 0.0569 µM, an IC50 (CAKI-1; Homo sapiens, CAKI-1) of 0.0687 µM and an IC50 (UACC-893; Homo sapiens, UACC-893) greater than 0.2 µM. The IC50 (UMUC3; Homo sapiens, UMUC3) was 0.0692 µM, the IC50 (ZR-75-30; Homo sapiens, ZR-75-30) was greater than 0.2 µM and the IC50 (COLO-679; Homo sapiens, COLO-679) was greater than 0.2 µM.

Compound CISPLATIN has an IC50 (Ca9-22; ca9-22) of 10.4 µM, an IC50 (ChaGo-K-1; chago-k-1) of 15.2 µM and an IC50 (DMS-273; dms-273) of 9.7 µM. The IC50 (Detroit 562; detroit 562) was 38.3 µM, the IC50 (HCC1806; hcc1806) was 7.33 µM and the IC50 (HGC-27; hgc-27) was 6.65 µM. It also gave an IC50 (HSC-2; hsc-2) of 129 µM, an IC50 (Hs-578T; hs-578-t) of 11.3 µM and an IC50 (HuP-T3; hup-t3) of 53.9 µM. It also gave an IC50 (JEG-3; jeg-3) of 10.3 µM, an IC50 (Kasumi 1; kasumi 1) of 62.1 µM and an IC50 (KNS-62; kns-62) of 14 µM. For the same compound, the IC50 (KYSE-450; kyse-450) was 72.8 µM, the IC50 (KYSE-70 cell line; kyse-70) was 48.7 µM and the IC50 (LK-2; lk-2) was 44.3 µM. The IC50 (MCF7; mcf7) was 15.2 µM, the IC50 (NCI-H1437; nci-h1437) was 84.4 µM and the IC50 (NCI-H1651; nci-h1651) was 7.06 µM. The IC50 (NCI-H1703; nci-h1703) was 148 µM, the IC50 (NCI-H2347; nci-h2347) was 218 µM and the IC50 (NCI-H596; nci-h596) was 305 µM. The IC50 (NCI-H630; nci-h630) was 514 µM, the IC50 (NCI-H661; nci-h661) was 13.6 µM and the IC50 (NCI-H727; nci-h727) was 691 µM. It also gave an IC50 (PANC-03-27; panc-03-27) of 38.3 µM, an IC50 (PFSK-1; pfsk-1) of 37.7 µM and an IC50 (RO82-W-1; ro82-w-1) of 72.1 µM. It also gave an IC50 (SCC-25; scc-25) of 64.6 µM, an IC50 (SW626; sw626) of 33.1 µM and an IC50 (SW756; sw756) of 9.26 µM. For the same compound, the IC50 (T-24; t-24) was 5.56 µM, the IC50 5637 was 4.52 µM and the IC50 (8505C; 8505c) was 34.6 µM. It also gave an IC50 (AN3-CA; an3-ca) of 9.94 µM, an IC50 (CAKI-1; caki-1) of 7.27 µM and an IC50 (UACC-893; uacc-893) of 26.1 µM. For the same compound, the IC50 (UMUC3; umuc3) was 3.93 µM, the IC50 (ZR-75-30; zr-75-30) was 72.2 µM and the IC50 (COLO-679; colo-679) was 765 µM.
